Experimental data as given in patent US20240009116A1, “DRUG DELIVERY SYSTEM COMPRISING A NON-STEROIDAL ANTI-INFLAMMATORY (NSAID) AND A PROGESTOGENIC COMPOUND AND METHODS FOR MANUFACTURING” (Bayer OY, priority 2015, published 2024).

Assay: Polymorph form during filament preparation and printing (i.a. X-ray diffraction)
Type: physicochemical
Excerpt: As drug indomethacin was used. Indomethacin can appear in different polymorphic forms, which are differently bioavailable. In the current examples the stable form y-indomethacin was used. […] Other NSAID's such as meloxicam, piroxicam, naproxen, celecoxib, diclofenac, tenoxicam, nimesulide, lornoxicam and indomethacin are likewise suitable, of which indomethacin is particularly preferred.

COc1ccc2c(c1)c(CC(=O)O)c(C)n2C(=O)c1ccc(Cl)cc1 [y-indomethacin, indomethacin]
polymorph form stability: the polymorph form does not change during filament preparation and printing
